Measurements from PubChem BioAssay (NCI).
Values joined by “and” are separate entries in the source; they are usually repeats but may differ in a detail not shown here. Identical values can stand only once.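 Compound exposure: 48 hours, 5 concentrations, 96-well plates. At the GI50, growth is halved. TGI denotes the concentration required for complete inhibition of growth.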

Experiments:
Assay in all cases: NCI-60 cell line screen, 48 h
[1] = tested on: HOP-92 NSCLC
[2] = tested on: SK-OV-3 ovarian
[3] = tested on: LOX IMVI melanoma
[4] = tested on: OVCAR-3 ovarian
[5] = tested on: MCF7 breast
[6] = tested on: CAKI-1 renal
[7] = tested on: T-47D breast
[8] = tested on: SK-MEL-28 melanoma
[9] = tested on: ACHN renal
[10] = tested on: SNB-19 CNS

SMILES | GI50 [1] [µM] | TGI [1] | GI50 [2] [µM] | TGI [2] | GI50 [3] [µM] | TGI [3] | GI50 [4] [µM] | TGI [4] | GI50 [5] [µM] | TGI [5] [µM] | GI50 [6] [µM] | TGI [6] | GI50 [7] [µM] | TGI [7] | GI50 [8] [µM] | TGI [8] | GI50 [9] [µM] | TGI [9] | GI50 [10] [µM] | TGI [10]
CCC[CH2][Sn]([CH2]CCC)([O]C(=O)c1cc(F)ccc1F)[O][Sn]([CH2]CCC)([CH2]CCC)[O]C(=O)c1cc(F)ccc1F | 0.148 | 0.491 µM | 1.03 | 2.34 µM | 0.132 | 0.306 µM | 0.512 | 1.61 µM | 0.0822 | 0.776 | 0.129 | 0.621 µM | 0.0222 | 0.207 µM | 0.169 | 0.497 µM | 0.251 | 0.738 µM | 0.667 | 1.76 µM
O=C1CC(c2cccc(O)c2)C2(C(=O)NC(=S)NC2=O)C(c2cccc(O)c2)C1 (stereo unspecified) | > 100 | > 100 µM | > 100 | > 100 µM | > 100 | > 100 µM | > 100 | > 100 µM | > 100 | > 100 | > 100 | > 100 µM | > 100 | > 100 µM | > 100 | > 100 µM | > 100 | > 100 µM | > 100 | > 100 µM
Nc1ncnc2c1ncn2Cc1ccc(C23CC4CC(CC(C4)C2)C3)c(OCc2cc(F)c(F)cc2F)c1 | 4.63 | 32.7 µM | 87.7 | > 100 µM | 5.36 | > 100 µM | 3.27 | > 100 µM | 6.37 | 30.2 | 2.32 | 6.9 µM | > 100 | > 100 µM | > 100 | > 100 µM | 5.74 | > 100 µM | 29.5 | > 100 µM
N/C(=C\C(=O)n1nc(-c2ccccc2)cc1N)c1ccccc1 | 4.59 | 31.8 µM | 5.31 | 39 µM | 6.54 | 31.4 µM | 2.28 | 6.46 µM | 2.86 | 21.1 | 5.96 | 80.4 µM | 3.27 | 26.3 µM | 5.84 | 32.3 µM | 8.29 | > 100 µM | 14.9 | 81.2 µM
Cc1nc(-c2ccccc2)c(Cc2ccccc2O)c(=O)[nH]1 |  | > 100 µM |  | > 100 µM |  | > 100 µM |  | > 100 µM |  | > 100 |  | > 100 µM |  | > 100 µM |  | > 100 µM |  | > 100 µM |  | > 100 µM
Cc1cc(NCCCNc2ccnc3cc(Cl)ccc23)nc(N2CCN(C)CC2)n1 | 15.2 | 37.4 µM | 7.66 | 45.6 µM | 2 | 5.2 µM | 5.79 | 25.7 µM | 2.77 | 28.4 | 3.12 | 11.2 µM | 6.7 | 30.9 µM | 1.84 | 3.67 µM | 3.71 | 21 µM | 12.5 | 49.5 µM
O=C1C2C(C(=O)[N]1[Hg][c]1cccs1)C1(Cl)C(Cl)=C(Cl)C2(Cl)C1(Cl)Cl (stereo unspecified) | 1.58 | 3.03 µM | 5.71 | 17.9 µM | 0.708 | 1.94 µM | 0.283 | 0.904 µM | 0.386 | 1.94 | 1.29 | 2.64 µM | 0.57 | 2.94 µM | 1.24 | 2.7 µM | 1.61 | 3.04 µM | 1.72 | 3.4 µM
Oc1ccc(CN2CCC(N3CCOCC3)CC2)c2cccnc12 | 65.9 | > 100 µM | > 100 | > 100 µM | 29.9 | > 100 µM | 31.5 | > 100 µM | 22.7 | 76.8 | 29.2 | > 100 µM | 35.5 | > 100 µM | 37.6 | > 100 µM | 25.1 | > 100 µM | 43.9 | > 100 µM
Nc1ccccc1-c1ccc([N+](=O)[O-])cc1 | 17.9 | 97.6 µM | 68.3 | > 100 µM | 37.4 | > 100 µM | 13.4 | 76.9 µM | 35 | > 100 | 1.71 | > 100 µM | 3.04 | > 100 µM | 83.5 | > 100 µM | 4.99 | > 100 µM | 24.2 | > 100 µM
COc1cc(-n2cc(-c3ccc(F)cc3)nc2SCc2ccccc2)cc(OC)c1OC | 1.48 | 37 µM | > 100 | > 100 µM | > 100 | > 100 µM | > 100 | > 100 µM | > 100 | > 100 | > 100 | > 100 µM | 9.57 | > 100 µM | > 100 | > 100 µM | > 100 | > 100 µM | > 100 | > 100 µM
CC(C)c1c(C(=O)Nc2ccccc2)c(-c2ccccc2)c(-c2ccc(F)cc2)n1CC[C@@H]1CC=CC(=O)O1 | 0.419 | 2.28 µM | 3.39 | 11.9 µM | 1.63 | 3.06 µM | 1.8 | 3.31 µM | 1.78 | 4.01 | 1.6 | 3.45 µM | 2.58 | 7.65 µM | 1.69 | 3.14 µM | 1.57 | 2.92 µM | 1.7 | 3.13 µM
Cn1ccnc1C(=O)/C=C/c1ccc(C(=O)Nc2ccc(S(F)(F)(F)(F)F)cc2)cc1 | 3.03 | > 14.3 µM | > 14.3 | > 14.3 µM | 1.01 | 3.25 µM | 1.05 | 7.26 µM | 0.481 | > 14.3 | 2.1 | > 14.3 µM | 0.923 | > 14.3 µM | > 14.3 | > 14.3 µM | 5.12 | > 14.3 µM | 2.34 | > 14.3 µM
O=c1ccc(N=Nc2ccc([N+](=O)[O-])cc2)ccc1O | 4.9 | > 100 µM | 28.4 | > 100 µM | 3.36 | > 100 µM | 3.33 | 25.8 µM | 4 | > 100 | 7.79 | > 100 µM | 4.31 | > 100 µM | 8.65 | > 100 µM | 7.07 | > 100 µM | 4.14 | > 100 µM
CC(C)(O)C#Cc1ccc(/C=C/C(=O)c2ccccc2)s1 | 13.6 | 27.1 µM | 16.5 | 30.1 µM | 13.8 | 26.7 µM | 17 | 31.5 µM | 3.63 | 16.7 | 16.9 | 30.6 µM | 14.5 | 67.9 µM | 16 | 30.2 µM | 17 | 30.7 µM | 16.9 | 31.7 µM
COc1cc2c(cc1O)-c1c(cnn1-c1ccc([N+](=O)[O-])cc1)CCC2 |  | > 100 µM |  | > 100 µM |  | 26.5 µM |  | 55.2 µM |  | > 100 |  | 38.5 µM |  | > 100 µM |  | > 100 µM |  | 14.6 µM |  | > 100 µM
O=C1c2cccnc2C(=O)C2C3C=CC(C3)C12 (stereo unspecified) |  | 27 µM |  | 43.9 µM |  | 15.7 µM |  | 31.8 µM |  | 15.4 |  | 31.9 µM |  | 13.2 µM |  | 39.3 µM |  | 20.4 µM |  | 34.3 µM
COc1ccc2c(c1)=C(C=C1C=CN(O)C=C1)C(=O)N=2 | 25.9 | > 100 µM | 18.8 | 54.5 µM | 23.9 | > 67.3 µM | 26.2 | > 78.1 µM | 20.9 | > 100 | 28.2 | > 89.6 µM | 6.34 | > 68.7 µM | 27 | > 100 µM | 23.5 | > 100 µM | 10.6 | 64.8 µM
COc1cc2c3c(n(CCCN(CCN)CCCn4c5c(c6cc(OC)c(OC)cc6c4=O)C(=O)c4cc6c(cc4-5)OCO6)c(=O)c2cc1OC)-c1cc2c(cc1C3=O)OCO2 | 1.29 | 15 µM | 1.41 | > 91.6 µM | 0.57 | 6.32 µM | 4.34 | 20.7 µM | 0.376 | > 36 | 0.271 | 3.23 µM | 0.457 | > 100 µM | > 37.1 | > 100 µM | 0.376 | 3.02 µM | 0.741 | > 100 µM
COc1ccc(-n2cc(-c3cc(OC)c(OC)c(OC)c3)nc2SCc2ccccc2)cc1 | 28.9 | > 100 µM | > 100 | > 100 µM | 74.7 | > 100 µM | 47.4 | > 100 µM | 15.4 | > 100 | > 100 | > 100 µM | 7.89 | > 100 µM | 76.6 | > 100 µM | 78.8 | > 100 µM | > 100 | > 100 µM
S=C(N/N=C(/c1ccccc1)c1ccccn1)N1CCCCC1 | 1.16 | 2.27 µM and 2.81 µM | < 0.001 | 2.36 µM and 1.24 µM |  | 1.95 µM and 1.32 µM | < 0.001 | 1.88 µM and 1.39 µM |  | 4.12 | 0.107 | 1.66 µM and 2.33 µM | < 0.001 | 1.01 µM and 2.9 µM | 1.08 | 2.55 µM and 2.82 µM | < 0.001 | 1.49 µM and 1.46 µM | 1.1 | 2.9 µM and 5.49 µM
Clc1ccc(/C=C/c2cc(N3CCOCC3)c3cc(Cl)c(Cl)cc3n2)cc1 | > 100 | > 100 µM | > 100 | > 100 µM | > 100 | > 100 µM | 3.81 | > 100 µM | > 100 | > 100 | > 100 | > 100 µM | > 100 | > 100 µM | > 100 | > 100 µM | > 100 | > 100 µM | > 100 | > 100 µM
CC(=O)CCc1ccc(OC2OC(COC(=O)c3cc(O)c(O)c(O)c3)C(O)C(O)C2OC(=O)/C=C/c2ccccc2)cc1 (stereo unspecified) | 30.4 | > 100 µM | 29.8 | 68.5 µM | 17.1 | 41.4 µM | 23.8 | 72.4 µM | 22.7 | 47.1 | 29.7 | > 100 µM | 26.1 | > 100 µM | 19.4 | 39.9 µM | 25.6 | 75.4 µM | 18.4 | 49.7 µM
C/C=C/C/C=C/CCC(=O)[C@H]1O[C@H]1C(N)=O | 10.8 | 26.3 µM | 27 | > 72.7 µM | 8.38 | 21.5 µM | 13.9 | 27.4 µM | 12.6 | 26.1 | 13.4 | 36.5 µM | 13.7 | 34 µM |  | 28.3 µM |  | 26.9 µM | 14.5 | 29.5 µM
